Measured values as given in the Kinase Knowledgebase extract (Sharma et al. 2016).
pIC50: −log10 of the molar value.

target: MAPK14 (human) (UniProt Q16539); experiment: Inhibition of MAPK14 Kinase Activity
Sequence (Q16539 whole entry, looked up): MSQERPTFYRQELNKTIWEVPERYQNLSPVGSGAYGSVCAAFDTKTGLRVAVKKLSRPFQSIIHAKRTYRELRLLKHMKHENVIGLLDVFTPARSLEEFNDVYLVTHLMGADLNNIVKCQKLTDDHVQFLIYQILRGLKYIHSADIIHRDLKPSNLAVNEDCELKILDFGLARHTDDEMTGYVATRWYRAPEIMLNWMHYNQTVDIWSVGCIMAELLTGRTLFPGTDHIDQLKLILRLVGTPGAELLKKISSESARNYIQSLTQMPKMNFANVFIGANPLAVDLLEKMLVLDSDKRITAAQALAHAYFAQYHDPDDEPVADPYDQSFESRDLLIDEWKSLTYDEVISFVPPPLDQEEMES

Structure (SMILES)	pIC50
CC(=O)CC(C)(C)NC(=O)c1ccc(-c2cc(C(=O)NC3CC3)cc(F)c2C)cc1	> 5.00
Cc1c(F)cc(C(=O)NC2CC2)cc1-c1ccc(C(=O)N2CCCC2)cc1	> 5.00
Cc1c(F)cc(C(=O)NC2CC2)cc1-c1ccc(C(=O)NCCS(C)(=O)=O)cc1	> 5.00
CCC(C)(C#N)NC(=O)c1ccc(-c2cc(C(=O)NC3CC3)cc(F)c2C)cc1 (stereo unspecified)	> 5.00
Cc1c(F)cc(C(=O)NC2CC2)cc1-c1ccc(C(=O)NCCC#N)cc1	> 5.00
Cc1c(F)cc(C(=O)NC2CC2)cc1-c1ccc(C(=O)NCC2(O)CCCCC2)cc1	> 5.00
CSCCNC(=O)c1ccc(-c2cc(C(=O)NC3CC3)cc(F)c2C)cc1	> 5.00
Cc1c(F)cc(C(=O)NC2CC2)cc1-c1ccc(C(=O)NC2(C#N)CCCCC2)cc1	> 5.00
Cc1c(F)cc(C(=O)NC2CC2)cc1-c1ccc(C(=O)NC(C)(C)C(=O)C(C)C)cc1	> 5.00
Cc1c(F)cc(C(=O)NC2CC2)cc1-c1ccc(C(=O)NC(CO)C2CC2)cc1 (stereo unspecified)	> 5.00
Cc1c(F)cc(C(=O)NC2CC2)cc1-c1ccc(C(=O)N2CCC2)cc1	> 5.00
